From patent US20260042747A1, “KIT INHIBITORS, COMPOUNDS, PHARMACEUTICAL COMPOSITIONS, AND METHODS OF USE THEREOF” (Alivexis, Inc., priority 2022, published 2026)
Structures can show the parent of a compound that is named as a salt. Where two headings read alike, the source gives them in different places. Blank lines part the entries; values can stand above or below the compound they belong to.

What was measured:
GIST-T1 cells = assay: GIST cell proliferation assay; assay type: cell-based, human; details: read-out: GIST-T1 IC50
Source text: Gastrointestinal stromal tumors (GIST) are the most common adult sarcomas and the majority (85-90%) of GIST cases are caused by oncogenic mutations in the receptor tyrosine kinases (RTKs), KIT or PDGFRA, which result in constitutive activation of these receptors. Human GIST-derived cell line GIST-Ti which harboring a mutation in exon 11 of KIT was used for the measurement of inhibitory potency of the compounds.
GIST-T1 cells were purchased from Cosmo Bio (Tokyo, Japan) and cultured in 10% FBS containing DMEM. The assay was performed in 96-well plates and the IC50 of each compound was determined by CellTiter Glo Assay reagent and Victor X5 Multilabel Counter. Cells were seeded at a density of 2000 cells/90 μL/well in 96-well plates. Compound dilution, cell treatment and determination of IC50 were performed as described in the assay methods of M-07e Cell Proliferation Assay.

[1] = biological target: recombinant human KIT tyrosine kinase protein (Homo sapiens (Human), UniProt P10721); assay: KIT tyrosine kinase assay (ADP-Glo); assay type: biochemical
recombinant human KIT tyrosine kinase protein, sequence (P10721 546-976): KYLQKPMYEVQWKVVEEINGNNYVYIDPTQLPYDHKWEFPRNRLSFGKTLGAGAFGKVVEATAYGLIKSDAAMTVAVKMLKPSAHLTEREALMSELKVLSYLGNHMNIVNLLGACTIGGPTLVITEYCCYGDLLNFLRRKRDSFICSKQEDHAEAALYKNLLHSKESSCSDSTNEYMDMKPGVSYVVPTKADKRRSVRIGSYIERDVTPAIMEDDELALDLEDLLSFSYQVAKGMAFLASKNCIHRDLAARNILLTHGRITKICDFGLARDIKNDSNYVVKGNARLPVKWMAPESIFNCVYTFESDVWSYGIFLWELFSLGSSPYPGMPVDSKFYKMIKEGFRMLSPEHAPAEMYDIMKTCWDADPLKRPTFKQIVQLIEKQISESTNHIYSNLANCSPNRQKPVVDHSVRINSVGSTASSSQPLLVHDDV

M-07e cells = assay: SCF-dependent M-07e cell proliferation assay; assay type: cell-based, human; details: read-out: M-07e IC50
Protocol: SCF-dependent cell proliferation assay was developed to measure the inhibitory potency of the compounds in M-07e cells, which express wild-type human KIT protein. The assay was performed in 96-well plates and the IC50 of each KIT inhibitor was determined by CellTiter Glo Assay reagent and Victor X5 Multilabel Counter (Perkin Elmer).
M-07e cells were purchased from AcceGen Biotechnology. Cells were maintained with M-07e Growth medium: RPMI-1640 containing 20% FBS, 100 U/mL penicillin and 100 microgram/mL streptomycin, 10 ng/mL rhGM-CSF, 10 ng/mL rhSCF. M-07e cells were seeded at a density of 5000 cells/90 μL/well in 96-well plates. Test compounds were dissolved in 100% DMSO to make 20 mM stock solution and serially diluted 1:3 with 100% DMSO to make an 11-point dilution series with concen-trations from […] to 0.024 μM. The serially diluted compounds were then each diluted 1:50 with culture medium to obtain assay compound solutions containing 2% DMSO. Ten μL of assay compound solutions were added to the 90 μL of culture cell suspension in the 96-well plate, with a final DMSO concentration of 0.2%. The plates were then incubated in a 5% CO2 incubator at 37° C. for 3 days. To obtain Day Zero Controls for background calculation, cells were seeded at 5000 cells/100 μL in a new 96-well plate and processed on the same day. Both Day Zero controls and 3 day culture plates were then treated as follows. 100 μL of CellTiter Glo Assay reagent was added to each well and the plate was incubated at room temperature for 15 min on a shaker at 200-300 RPM. Then 100 μL of cell lysate samples were transferred to white wall 96-well plates and luminescence was measured by a plate reader. The luminescence of Day Zero Control was subtracted from the luminescence intensity of 3 day culture readings. The assay control for this experiment was cells treated with 0.2% DMSO in culture medium and wells with 100 μL of culture medium (0.2% DMSO without cells) were used as the blank for data analysis.
The IC50 value of each compound was determined by using % inhibition by nor-malizing inhibition in DMSO treated control wells to 0% using the following formula method: […]
Plot percent inhibition in proliferation of triplicates against the respective concen-trations of compound and fit the dose response curve using the sigmoidal dose response equation to generate the IC50 in GraphPad Prism 8 software.

[2] = Homo sapiens, GISTT1, 72 h, GIST-T1 cells (mutation in exon 11 of KIT), CellTiter Glo, 3 days
[3] = SCF-dependent M-07e cell proliferation, 3 days, CellTiter Glo
[4] = Homo sapiens, M-07e, 72 h, SCF-dependent M-07e cell proliferation, 3 days, CellTiter Glo

SMILES: O=C(NCc1ccc(Oc2ccc(Cl)cc2)nc1)c1ccc2[nH]c(=O)[nH]c2c1 [Example 31]
IC50 (GIST-T1 cells; Homo sapiens, GISTT1, 72 h): 0.07 µM
IC50 ([1]; Table 98): 0.07 µM

SMILES: Cn1c(=O)[nH]c2cc(C(=O)NCc3ccc(Oc4cccc(F)c4)nc3)ccc21 [Example 33]
IC50 (GIST-T1 cells; [2]): 0.078 µM
IC50 ([1]; Table 98): 0.078 µM

SMILES: CC(C)n1c(=O)[nH]c2cc(C(=O)NCc3ccc(Oc4ccc(F)cc4)nc3)ccc21 [Compound 2, N-((6-(4-Fluorophenoxy)pyridin-3-yl)methyl)-1-isopropyl-2-oxo-2,3-dihydro-1H-benzim idazole-5-carboxamide]
IC50 (GIST-T1 cells; [2]): 0.45 µM
IC50 ([1]; Table 98): 0.45 µM

SMILES: CCn1c(=O)[nH]c2cc(C(=O)NCc3ccc(Oc4ccc(F)cc4)nc3)ccc21 [Example 35]
IC50 (GIST-T1 cells; Homo sapiens, GISTT1, 72 h): 0.083 µM
IC50 ([1]; Table 98): 0.083 µM

SMILES: Cn1c(=O)[nH]c2cc(C(=O)NCc3ccc(Oc4ccc(Cl)cc4)nc3)ccc21 [compound 34]
IC50 (GIST-T1 cells; GIST-T1 cells (mutation in exon 11 of KIT), CellTiter Glo, 3 days): 0.058 µM
IC50 ([1]; Table 98): 0.058 µM

SMILES: Cn1c(=O)[nH]c2cc(C(=O)NCc3ccc(Oc4ccccc4F)nc3)ccc21 [Compound 1, N-((6-(2-Fluorophenoxy)pyridin-3-yl)methyl)-1-methyl-2-oxo-2,3-dihydro-1H-benzimid azole-5-carboxamide]
IC50 (GIST-T1 cells; [2]): 0.057 µM
IC50 ([1]; Table 98): 0.057 µM

SMILES: CN(CC1CCCCO1)c1ccc(CNC(=O)c2ccc3c(c2)[nH]c(=O)n3C)cn1 (stereo not drawn) [Example 71]
IC50 ([1]; Table 98): 0.06 µM
IC50 (M-07e cells; Homo sapiens, M-07e, 72 h): 0.31 µM

SMILES: O=C(NCc1ccc(Oc2cccc(F)c2)nc1)c1ccc2[nH]c(=O)[nH]c2c1 [Example 30]
IC50 (GIST-T1 cells; Homo sapiens, GISTT1, 72 h): 0.067 µM
IC50 ([1]; Table 98): 0.067 µM

SMILES: Cn1c(=O)[nH]c2cc(C(=O)NCc3ccc(N4CCCC4(C)C)nc3)ccc21 [Example 97]
IC50 ([1]; Table 98): 0.034 µM
IC50 (M-07e cells; Homo sapiens, M-07e, 72 h): 0.24 µM

SMILES: Cn1c(=O)[nH]c2cc(C(=O)NCc3cnc4c(ccn4-c4ccccc4)c3)ccc21 [Compound 20, 1-Methyl-2-oxo-N-((1-phenyl-1H-pyrrolo[2,3-b]pyridin-5-yl)methyl)-2,3-dihydro-1H-benzimidazole-5-carboxamide]
IC50 ([1]; Table 98): 0.038 µM
IC50 (M-07e cells; [4]): 0.4 µM

SMILES: Cn1c(=O)[nH]c2cc(C(=O)NCc3cnc4c(c3)CCN4C3CCC(F)(F)CC3)ccc21 [Compound 18, N-((1-(4,4-difluorocyclohexyl)-2,3-dihydro-1H-pyrrolo[2,3-b]pyridin-5-yl)methyl)-1-met hyl-2-oxo-2,3-dihydro-1H-benzimidazole-5-carboxamide]
IC50 ([1]; Table 98): 0.057 µM
IC50 (M-07e cells; [4]): 0.21 µM

SMILES: CN(CCC(F)(F)F)c1ccc(CNC(=O)c2ccc3c(c2)[nH]c(=O)n3C)cn1 [Example 67]
IC50 ([1]; Table 98): 0.025 µM
IC50 (M-07e cells; Homo sapiens, M-07e, 72 h): 0.22 µM

SMILES: CN(c1ccc(CNC(=O)c2ccc3c(c2)[nH]c(=O)n3C)cn1)C1CC2(C1)CC2(F)F (stereo not drawn) [Example 125]
IC50 ([1]; Table 99): 0.031 µM
IC50 (M-07e cells; Homo sapiens, M-07e, 72 h): 0.151 µM

SMILES: CCN(c1ccc(F)cc1)c1ccc(CNC(=O)c2ccc3c(c2)[nH]c(=O)n3C)cn1 [Example 58]
IC50 ([1]; Table 98): 0.021 µM
IC50 (M-07e cells; Homo sapiens, M-07e, 72 h): 2.4 µM

SMILES: Cn1c(=O)[nH]c2cc(C(=O)NCc3ccc(Oc4ccccc4F)nc3)c(F)cc21 [Compound 3, 6-Fluoro-N-((6-(2-fluorophenoxy)pyridin-3-yl)methyl)-1-methyl-2-oxo-2,3-dihydro-1H-benzimidazole-5-carboxamide trifluoroacetate]
IC50 ([1]; Table 98): 0.026 µM
IC50 (M-07e cells; [4]): 0.18 µM

SMILES: Cn1c(=O)[nH]c2cc(C(=O)NCc3ccc(Nc4ccc(F)cc4)nc3)ccc21 [Example 57]
IC50 ([1]; Table 98): 0.227 µM
IC50 (M-07e cells; [4]): 7.3 µM

SMILES: Cn1c(=O)[nH]c2cc(C(=O)NCc3ccc(Oc4ccc(F)cc4F)nc3)ccc21 [Compound 4, N-((6-(2,4-Difluorophenoxy)pyridin-3-yl)methyl)-1-methyl-2-oxo-2,3-dihydro-1H-benzi midazole-5-carboxamide]
IC50 ([1]; Table 98): 0.021 µM
IC50 (M-07e cells; [4]): 0.38 µM

SMILES: CN(CC1CCC(F)(F)CC1)c1ccc(CNC(=O)c2ccc3c(c2)[nH]c(=O)n3C)cn1 [Example 70]
IC50 ([1]; Table 98): 0.061 µM
IC50 (M-07e cells; Homo sapiens, M-07e, 72 h): 0.14 µM

Second part, led by results:

IC50 ([1]; Table 98): 3.6 µM
SMILES: O=C(NCc1ccc(C(F)(F)F)nc1)c1ccc2[nH]c(=O)[nH]c2c1 [Example 28]
IC50 (GIST-T1 cells; [2]): 3.6 µM

IC50 ([1]; Table 98): 0.029 µM
SMILES: O=C(NCc1ccc(Oc2ccccc2F)nc1)c1ccc2[nH]c(=O)[nH]c2c1 [Example 32]
IC50 (GIST-T1 cells; [2]): 0.029 µM

IC50 ([1]; Table 99): 0.022 µM
SMILES: CN(c1ccc(CNC(=O)c2ccc3c(c2)[nH]c(=O)n3C)cn1)C1CC(OC(F)F)C1 (single isomer, unassigned) [106 Isomer II, N-((6-((3-(Difluoromethoxy)cyclobutyl)(methyl)amino)pyridin-3-yl)methyl)-1-methyl-2-oxo-2,3-dihydro-1H-benzimidazole-5-carboxamide]
IC50 (M-07e cells; [3]): 0.089 µM

IC50 ([1]; Table 99): 0.051 µM
SMILES: CN(c1ccc(CNC(=O)c2ccc3c(c2)[nH]c(=O)n3C)cn1)C1CCCC(O)C1 (stereo not drawn) [Example 104, N-((6-((3-Hydroxycyclohexyl)(methyl)amino)pyridin-3-yl)methyl)-1-methyl-2-oxo-2,3-d ihydro-1H-benzimidazole-5-carboxamide]
IC50 (M-07e cells; [4]): 7.66 µM

IC50 ([1]; Table 99): 0.02 µM
SMILES: CC(C)N(C)c1ccc(CNC(=O)c2ccc3[nH]c(=O)[nH]c3c2)cn1 [Example 129]
IC50 (M-07e cells; [4]): 1.02 µM

IC50 ([1]; Table 99): 0.027 µM
SMILES: CC(C)N(C)c1ccc(CNC(=O)c2cc3[nH]c(=O)[nH]c3cc2F)cn1 [Example 136]
IC50 (M-07e cells; [4]): 0.209 µM

IC50 ([1]; Table 99): 0.028 µM
SMILES: CN(c1ccc(CNC(=O)c2ccc3c(c2)[nH]c(=O)n3C)cn1)C1CC(OC(F)(F)F)C1 (single isomer, unassigned) [107 Isomer II, 1-Methyl-N-((6-(methyl(3-(trifluoromethoxy)cyclobutyl)amino)pyridin-3-yl)methyl)-2-oxo-2,3-dihydro-1H-benzimidazole-5-carboxamide]
IC50 (M-07e cells; [3]): 0.286 µM

IC50 ([1]; Table 99): 0.036 µM
SMILES: CN(c1ccc(CNC(=O)c2ccc3c(c2)[nH]c(=O)n3C)cn1)C1CC(OC(F)F)C1 (single isomer, unassigned) [106 Isomer I, N-((6-((3-(Difluoromethoxy)cyclobutyl)(methyl)amino)pyridin-3-yl)methyl)-1-methyl-2-oxo-2,3-dihydro-1H-benzimidazole-5-carboxamide]
IC50 (M-07e cells; [3]): 0.015 µM

IC50 ([1]; Table 98): 0.056 µM
SMILES: O=C(NCc1ccc(Oc2ccc(F)cc2)nc1)c1ccc2[nH]c(=O)[nH]c2c1 [Example 29]
IC50 (GIST-T1 cells; [2]): 0.056 µM
